Results from US20260166039A1 (SCHRÖDINGER, INC., priority 2022, published 2026).

biological target: T1, Wee1 kinase domain (Homo sapiens, UniProt P30291); assay: Wee1 Kinase Biochemical Assay (ADP-Glo); conditions: class symbols; 1 nM Wee1 enzyme, 15 uM ATP, 4 hours at 25° C.
T1 construct: Wee1 kinase domain was purchased from Carna (catalog #05-177); purchased Carna 05-177
Outline: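 Carna Wee1 kinase domain at 1 nM, with 15 uM ATP and 2 ng/mL poly(Lys,Tyr 4:1) substrate in 40 mM Tris-HCl, 20 mM MgCl2, 0.1 mg/mL BSA, 2 mM DTT, run 4 h at 25° C. ADP formation read by ADP-Glo luminescence. Percent inhibition normalised to DMSO and saturating-inhibitor controls.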

T1 sequence (P30291 299-569 limits assumed): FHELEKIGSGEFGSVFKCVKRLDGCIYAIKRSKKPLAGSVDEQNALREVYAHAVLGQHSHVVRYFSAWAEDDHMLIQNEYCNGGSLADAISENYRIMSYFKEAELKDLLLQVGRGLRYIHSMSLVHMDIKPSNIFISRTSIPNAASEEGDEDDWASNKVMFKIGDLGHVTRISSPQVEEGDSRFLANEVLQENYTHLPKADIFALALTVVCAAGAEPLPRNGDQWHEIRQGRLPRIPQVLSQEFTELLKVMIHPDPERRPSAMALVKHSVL

Compared with `CN1[C@@H]2C[C@H]1CN(c1ccc(Nc3ncc4c(n3)N(c3cccc(N5CCCC5=O)n3)[C@H]3CC(C)(C)OC[C@@]43C)cc1)C2` [Example 704, 1-(6-((4bS,8aS)-4b,7,7-trimethyl-2-((4-((1R,5S)-6-methyl-3,6-diazabicyclo[3.1.1]heptan-3-yl)phenyl)amino)-4b,7,8,8a-tetrahydropyrano[3′,4′:4,5]pyrrolo[2,3-d]pyrimidin-9(5H)-yl)pyridin-2-yl)pyrrolidin-2-one], `CN1CC[C@@H]2CN(c3ccc(Nc4ncc5c(n4)N(c4cccc(N6CCOC6=O)n4)[C@H]4CC(C)(C)OC[C@@]54C)cc3)C[C@@H]21` [Example 706, 3-(6-((4bS,8aS)-4b,7,7-trimethyl-2-((4-((3aR,6aR)-1-methylhexahydropyrrolo[3,4-b]pyrrol-5(1H)-yl)phenyl)amino)-4b,7,8,8a-tetrahydropyrano[3′,4′:4,5]pyrrolo[2,3-d]pyrimidin-9(5H)-yl)pyridin-2-yl)oxazolidin-2-one] is lower in IC50: 0.1 to 1 µM for the first, 0.01 to 0.1 µM for the second. The second is the more potent here.

`CN1CC2(C1)CN(c1ccc(Nc3ncc4c(n3)N(c3cccc(N5CCOC5=O)n3)[C@H]3CC(C)(C)OC[C@@]43C)cc1)C2` [Example 708, 3-(6-((4bS,8aS)-4b,7,7-trimethyl-2-((4-(6-methyl-2,6-diazaspiro[3.3]heptan-2-yl)phenyl)amino)-4b,7,8,8a-tetrahydropyrano[3′,4′:4,5]pyrrolo[2,3-d]pyrimidin-9(5H)-yl)pyridin-2-yl)oxazolidin-2-one] and `CC1(C)C[C@H]2N(c3cccc([C@@H]4CNCCO4)n3)c3nc(Nc4ccc(N5CCOCC5)cc4)ncc3[C@@]2(C)CO1` [Example 735, (4bR,8aR)-4b,7,7-trimethyl-9-(6-((S)-morpholin-2-yl)pyridin-2-yl)-N-(4-morpholinophenyl)-4b,5,7,8,8a,9-hexahydropyrano[3′,4′:4,5]pyrrolo[2,3-d]pyrimidin-2-amine] fall in the same range of IC50: 0.01 to 0.1 µM for the first, 0.01 to 0.1 µM for the second.

`CN1CCC(c2ccc(Nc3ncc4c(n3)N(c3cccc(N=S(C)(C)=O)c3)[C@H]3CC(C)(C)OC[C@@]43C)cn2)CC1` [Example 709, dimethyl((3-((4bS,8aS)-4b,7,7-trimethyl-2-((6-(1-methylpiperidin-4-yl)pyridin-3-yl)amino)-4b,7,8,8a-tetrahydropyrano[3′,4′:4,5]pyrrolo[2,3-d]pyrimidin-9(5H)-yl)phenyl)imino)-16-sulfanone] and `CN1CCC(n2cc(Nc3ncc4c(n3)N(c3cccc(N=S(C)(C)=O)c3)[C@H]3CC(C)(C)OC[C@@]43C)cn2)CC1` [Example 715, dimethyl((3-((4bS,8aS)-4b,7,7-trimethyl-2-((1-(1-methylpiperidin-4-yl)-1H-pyrazol-4-yl)amino)-4b,7,8,8a-tetrahydropyrano[3′,4′:4,5]pyrrolo[2,3-d]pyrimidin-9(5H)-yl)phenyl)imino)-16-sulfanone] cannot be ordered by IC50: no less than 1 µM for the first, 0.1 to 1 µM for the second.

First: CN1C[C@H]2C[C@@H]1CN2c1ccc(Nc2ncc3c(n2)N(c2cccc(N=S(C)(C)=O)c2)[C@H]2CC(C)(C)OC[C@@]32C)cc1 [Example 714, dimethyl((3-((4bS,8aS)-4b,7,7-trimethyl-2-((4-((1R,4R)-5-methyl-2,5-diazabicyclo[2.2.1]heptan-2-yl)phenyl)amino)-4b,7,8,8a-tetrahydropyrano[3′,4′:4,5]pyrrolo[2,3-d]pyrimidin-9(5H)-yl)phenyl)imino)-16-sulfanone]
Second: CC[C@]1(O)CCc2ccc(N3c4nc(Nc5ccc(N6C[C@H]7C[C@@H]6CN7C)cc5)ncc4[C@@]4(C)COC(C)(C)C[C@@H]34)nc21 [Example 789, (S)-7-ethyl-2-((4bR,8aR)-4b,7,7-trimethyl-2-((4-((1R,4R)-5-methyl-2,5-diazabicyclo[2.2.1]heptan-2-yl)phenyl)amino)-4b,7,8,8a-tetrahydropyrano[3′,4′:4,5]pyrrolo[2,3-d]pyrimidin-9(5H)-yl)-6,7-dihydro-5H-cyclopenta[b]pyridin-7-ol]
The IC50 of the first is higher: 0.01 to 0.1 µM for the first, less than 0.01 µM for the second. The second is the more potent here.

Compared with `CC1(C)C[C@@H]2N(c3cccc([C@H]4COCCN4)n3)c3nc(Nc4ccc(N5CCOCC5)cc4)ncc3[C@]2(C)CO1` [Example 732, (4bS,8aS)-4b,7,7-trimethyl-9-(6-((S)-morpholin-3-yl)pyridin-2-yl)-N-(4-morpholinophenyl)-4b,5,7,8,8a,9-hexahydropyrano[3′,4′:4,5]pyrrolo[2,3-d]pyrimidin-2-amine], `CC1(C)C[C@@H]2N(c3cccc([C@@H]4CNCCO4)n3)c3nc(Nc4ccc(N5CCOCC5)cc4)ncc3[C@]2(C)CO1` [Example 736, (4bS,8aS)-4b,7,7-trimethyl-9-(6-((S)-morpholin-2-yl)pyridin-2-yl)-N-(4-morpholinophenyl)-4b,5,7,8,8a,9-hexahydropyrano[3′,4′:4,5]pyrrolo[2,3-d]pyrimidin-2-amine] is higher in IC50: 0.01 to 0.1 µM for the first, 0.1 to 1 µM for the second. The first is the more potent here.

First: CC1(C)C[C@@H]2N(c3cccc([C@H]4CNCCO4)n3)c3nc(Nc4ccc(N5CCOCC5)cc4)ncc3[C@]2(C)CO1 [Example 738, (4bS,8aS)-4b,7,7-trimethyl-9-(6-((R)-morpholin-2-yl)pyridin-2-yl)-N-(4-morpholinophenyl)-4b,5,7,8,8a,9-hexahydropyrano[3′,4′:4,5]pyrrolo[2,3-d]pyrimidin-2-amine]
Second: CC[C@@]1(O)CCc2ccc(N3c4nc(Nc5ccc(N6CCN(C)CC6)cc5)ncc4[C@@]4(C)COC(C)(C)C[C@@H]34)nc21 [Example 787, (R)-7-ethyl-2-((4bR,8aR)-4b,7,7-trimethyl-2-((4-(4-methylpiperazin-1-yl)phenyl)amino)-4b,7,8,8a-tetrahydropyrano[3′,4′:4,5]pyrrolo[2,3-d]pyrimidin-9(5H)-yl)-6,7-dihydro-5H-cyclopenta[b]pyridin-7-ol]
The IC50 of the first is higher: 0.01 to 0.1 µM for the first, less than 0.01 µM for the second.

First: CNCc1cccc(N2c3nc(NC(=O)[C@H]4C[C@@H]4c4ccccc4)ncc3[C@@]3(C)COC(C)(C)C[C@@H]23)n1 [Example 761, (1S,2S)-2-phenyl-N-((4bR,8aR)-4b,7,7-trimethyl-9-(6-((methylamino)methyl)pyridin-2-yl)-4b,5,7,8,8a,9-hexahydropyrano[3′,4′:4,5]pyrrolo[2,3-d]pyrimidin-2-yl)cyclopropane-1-carboxamide]
Second: CNCc1cccc(N2c3nc(NC(=O)[C@H]4C[C@@H]4c4cccnc4)ncc3[C@@]3(C)COC(C)(C)C[C@@H]23)n1 [Example 769, (1S,2S)-2-(pyridin-3-yl)-N-((4bR,8aR)-4b,7,7-trimethyl-9-(6-((methylamino)methyl)pyridin-2-yl)-4b,5,7,8,8a,9-hexahydropyrano[3′,4′:4,5]pyrrolo[2,3-d]pyrimidin-2-yl)cyclopropane-1-carboxamide]
The IC50 of the first is lower: 0.01 to 0.1 µM for the first, 0.1 to 1 µM for the second. The first is the more potent here.

Compared with `CNCc1cccc(N2c3nc(NC(=O)[C@H]4C[C@@H]4c4cnn(C)c4)ncc3[C@@]3(C)COC(C)(C)C[C@@H]23)n1` [Example 763, (1S,2S)-2-(1-methyl-1H-pyrazol-4-yl)-N-((4bR,8aR)-4b,7,7-trimethyl-9-(6-((methylamino)methyl)pyridin-2-yl)-4b,5,7,8,8a,9-hexahydropyrano[3′,4′:4,5]pyrrolo[2,3-d]pyrimidin-2-yl)cyclopropane-1-carboxamide], `CC[C@@]1(O)CCc2ccc(N3c4nc(Nc5ccc(N6C[C@H]7C[C@@H]6CN7C)cc5)ncc4[C@@]4(C)COC(C)(C)C[C@@H]34)nc21` [Example 790, (R)-7-ethyl-2-((4bR,8aR)-4b,7,7-trimethyl-2-((4-((1R,4R)-5-methyl-2,5-diazabicyclo[2.2.1]heptan-2-yl)phenyl)amino)-4b,7,8,8a-tetrahydropyrano[3′,4′:4,5]pyrrolo[2,3-d]pyrimidin-9(5H)-yl)-6,7-dihydro-5H-cyclopenta[b]pyridin-7-ol] is lower in IC50: 0.01 to 0.1 µM for the first, less than 0.01 µM for the second.

`CC[C@]1(O)CCc2ccc(N3c4nc(Nc5ccc(N6CCN(C)CC6)cc5)ncc4[C@@]4(C)COC(C)(C)C[C@@H]34)nc21` [Example 788, (S)-7-ethyl-2-((4bR,8aR)-4b,7,7-trimethyl-2-((4-(4-methylpiperazin-1-yl)phenyl)amino)-4b,7,8,8a-tetrahydropyrano[3′,4′:4,5]pyrrolo[2,3-d]pyrimidin-9(5H)-yl)-6,7-dihydro-5H-cyclopenta[b]pyridin-7-ol] and `CC[C@]1(O)CCc2ccc(N3c4nc(Nc5ccc(N6C[C@@H]7C[C@H]6CN7C)cc5)ncc4[C@@]4(C)COC(C)(C)C[C@@H]34)nc21` [Example 791, (S)-7-ethyl-2-((4bR,8aR)-4b,7,7-trimethyl-2-((4-((1S,4S)-5-methyl-2,5-diazabicyclo[2.2.1]heptan-2-yl)phenyl)amino)-4b,7,8,8a-tetrahydropyrano[3′,4′:4,5]pyrrolo[2,3-d]pyrimidin-9(5H)-yl)-6,7-dihydro-5H-cyclopenta[b]pyridin-7-ol] cannot be ordered by IC50: less than 0.01 µM for the first, less than 0.01 µM for the second.

`CC[C@@]1(O)CCc2ccc(N3c4nc(Nc5ccc(N6C[C@@H]7C[C@H]6CN7C)cc5)ncc4[C@@]4(C)COC(C)(C)C[C@@H]34)nc21` [Example 792, (R)-7-ethyl-2-((4bR,8aR)-4b,7,7-trimethyl-2-((4-((1S,4S)-5-methyl-2,5-diazabicyclo[2.2.1]heptan-2-yl)phenyl)amino)-4b,7,8,8a-tetrahydropyrano[3′,4′:4,5]pyrrolo[2,3-d]pyrimidin-9(5H)-yl)-6,7-dihydro-5H-cyclopenta[b]pyridin-7-ol] and `C[C@H]1COC(=O)N1c1cccc(N2c3nc(Nc4ccc([C@H]5CCN(C)C5)cc4)ncc3[C@@]3(C)COCC[C@@H]23)n1` [Example 793, (S)-4-methyl-3-(6-((4bR,8aR)-4b-methyl-2-((4-((R)-1-methylpyrrolidin-3-yl)phenyl)amino)-4b,7,8,8a-tetrahydropyrano[3′,4′:4,5]pyrrolo[2,3-d]pyrimidin-9(5H)-yl)pyridin-2-yl)oxazolidin-2-one] cannot be ordered by IC50: less than 0.01 µM for the first, less than 0.01 µM for the second.

With `C[C@H]1COC(=O)N1c1cccc(N2c3nc(Nc4ccc([C@@H]5CCN(C)C5)cc4)ncc3[C@@]3(C)COCC[C@@H]23)n1` [Example 794, (S)-4-methyl-3-(6-((4bR,8aR)-4b-methyl-2-((4-((S)-1-methylpyrrolidin-3-yl)phenyl)amino)-4b,7,8,8a-tetrahydropyrano[3′,4′:4,5]pyrrolo[2,3-d]pyrimidin-9(5H)-yl)pyridin-2-yl)oxazolidin-2-one] the IC50 was less than 0.01 µM.
